{
  "source": "patent US9980943B2",
  "about": "“Methods of treating muscular dystrophy” (BOARD OF REGENTS OF THE NEVADA SYSTEM OF HIGHER EDUCATION, …, priority 2013, dated 2018)",
  "format_in_all_cases": "cell-based, mouse",
  "key": {"[1]": {"tested_on": "β-galactosidase in CMV-LacZ C2C12 myoblasts", "assay": "CMV-LacZ secondary screen in C2C12 myoblasts (β-Gal stabilizing assay)", "conditions": "for CMV-LACZ in Myoblasts (β-galactosidase activity relative to DMSO): CMV-LacZ C2C12 myoblasts; for CMV-LACZ in Myoblasts, value relative to DMSO: SU9516 analogs, C2C12 CMV-LacZ, N=2", "outline": "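Dose-response runs at 0.5–40 μM (0.5, 1, 5, 10, 20, 40 μM; N=2 per point) used a clonal C2C12 line carrying CMV-LacZ. Cells were assayed as myoblasts or as differentiated myotubes, and β-galactosidase levels were read with the FDG fluorogenic substrate.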"}, "[2]": {"tested_on": "α7 integrin (LacZ reporter in α7βgal+/− myoblasts)", "assay": "Myoblast α7+/LacZ integrin FDG assay (Burkin assay in myoblasts, 96-well)", "conditions": "96-well; for Burkin Assay in Myoblasts, signal relative to DMSO: α7+/LacZ myoblasts; for Burkin Assay in Myoblasts, value relative to DMSO: SU9516 analogs, N=3-6"}, "[3]": {"tested_on": "α7 integrin (LacZ reporter in α7+/LacZ myotubes)", "assay": "Myotube α7 integrin FDG assay (Burkin assay in myotubes, 96-well)", "conditions": "for Burkin Assay in Myotubes, value relative to DMSO: SU9516 analogs, 96-well, N=3-6"}, "[4]": {"tested_on": "β-galactosidase in CMV-LacZ C2C12 myotubes", "assay": "CMV-LacZ secondary screen in C2C12 myotubes (β-Gal stabilizing assay)", "conditions": "for CMV-LACZ in Myotubes, signal relative to DMSO: C2C12 CMV-LacZ myotubes, fold relative to DMSO; for CMV-LACZ in Myotubes, value relative to DMSO: SU9516 analogs, C2C12 CMV-LacZ, N=2", "outline": "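β-Gal level was the read-out, measured in a clonal C2C12 line expressing LacZ from a CMV promoter. Dose-response curves used six concentrations, 0.5 μM up to 40 μM, with duplicate points.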"}},
  "data": [
    {"smiles": "Fc1ccc(-c2ccnc3nc(N4CCN(c5ccccc5)CC4)nn23)cc1", "note": "[MLS000546316-01]", "values": [
      {"measurement": "CMV-LACZ in Myoblasts (β-galactosidase activity relative to DMSO)", "setting": "[1]; 0.5 uM", "value": 1.0623},
      {"measurement": "CMV-LACZ in Myoblasts (β-galactosidase activity relative to DMSO)", "setting": "[1]; 1 uM", "value": 1.1373},
      {"measurement": "CMV-LACZ in Myoblasts (β-galactosidase activity relative to DMSO)", "setting": "[1]; 5 uM", "value": 0.8090},
      {"measurement": "CMV-LACZ in Myoblasts (β-galactosidase activity relative to DMSO)", "setting": "[1]; 10 uM", "value": 1.2440},
      {"measurement": "CMV-LACZ in Myoblasts (β-galactosidase activity relative to DMSO)", "setting": "[1]; 20 uM", "value": 1.3463},
      {"measurement": "CMV-LACZ in Myoblasts (β-galactosidase activity relative to DMSO)", "setting": "[1]; 40 uM", "value": 1.5049},
      {"measurement": "Burkin Assay in Myoblasts, signal relative to DMSO", "setting": "[2]; 0.5 uM", "value": 1.159},
      {"measurement": "Burkin Assay in Myoblasts, signal relative to DMSO", "setting": "[2]; 1 uM", "value": 1.223},
      {"measurement": "Burkin Assay in Myoblasts, signal relative to DMSO", "setting": "[2]; 5 uM", "value": 1.164},
      {"measurement": "Burkin Assay in Myoblasts, signal relative to DMSO", "setting": "[2]; 10 uM", "value": 1.123},
      {"measurement": "Burkin Assay in Myoblasts, signal relative to DMSO", "setting": "[2]; 20 uM", "value": 1.026},
      {"measurement": "Burkin Assay in Myoblasts, signal relative to DMSO", "setting": "[2]; 40 uM", "value": 1.027},
      {"measurement": "Burkin Assay in Myotubes, α7 integrin LacZ reporter signal relative to DMSO", "setting": "[3]; 0.5 uM", "value": 1.137},
      {"measurement": "Burkin Assay in Myotubes, α7 integrin LacZ reporter signal relative to DMSO", "setting": "[3]; 1 uM", "value": 1.174},
      {"measurement": "Burkin Assay in Myotubes, α7 integrin LacZ reporter signal relative to DMSO", "setting": "[3]; 5 uM", "value": 1.066},
      {"measurement": "Burkin Assay in Myotubes, α7 integrin LacZ reporter signal relative to DMSO", "setting": "[3]; 10 uM", "value": 1.099},
      {"measurement": "Burkin Assay in Myotubes, α7 integrin LacZ reporter signal relative to DMSO", "setting": "[3]; 20 uM", "value": 0.8571},
      {"measurement": "Burkin Assay in Myotubes, α7 integrin LacZ reporter signal relative to DMSO", "setting": "[3]; 40 uM", "value": 1.176},
      {"measurement": "CMV-LACZ in Myotubes, signal relative to DMSO", "setting": "[4]; 0.5 uM", "value": 1.2590},
      {"measurement": "CMV-LACZ in Myotubes, signal relative to DMSO", "setting": "[4]; 1 uM", "value": 1.0019},
      {"measurement": "CMV-LACZ in Myotubes, signal relative to DMSO", "setting": "[4]; 5 uM", "value": 1.0040},
      {"measurement": "CMV-LACZ in Myotubes, signal relative to DMSO", "setting": "[4]; 10 uM", "value": 1.0825},
      {"measurement": "CMV-LACZ in Myotubes, signal relative to DMSO", "setting": "[4]; 20 uM", "value": 1.0190},
      {"measurement": "CMV-LACZ in Myotubes, signal relative to DMSO", "setting": "[4]; 40 uM", "value": 1.2640}
    ]},
    {"smiles": "Cc1ccc2c(c1)/C(=C/c1ccc(F)cc1)C(=O)N2", "note": "[MLS001202366-01]", "values": [
      {"measurement": "CMV-LACZ in Myoblasts, value relative to DMSO", "setting": "[1]; 0.5 uM", "value": 0.7656},
      {"measurement": "CMV-LACZ in Myoblasts, value relative to DMSO", "setting": "[1]; 1 uM", "value": 0.6431},
      {"measurement": "CMV-LACZ in Myoblasts, value relative to DMSO", "setting": "[1]; 5 uM", "value": 1.0533},
      {"measurement": "CMV-LACZ in Myoblasts, value relative to DMSO", "setting": "[1]; 10 uM", "value": 1.3214},
      {"measurement": "CMV-LACZ in Myoblasts, value relative to DMSO", "setting": "[1]; 20 uM", "value": 0.7222},
      {"measurement": "CMV-LACZ in Myoblasts, value relative to DMSO", "setting": "[1]; 40 uM", "value": 0.3322},
      {"measurement": "Burkin Assay in Myoblasts, value relative to DMSO", "setting": "[2]; 0.5 uM", "value": 1.007},
      {"measurement": "Burkin Assay in Myoblasts, value relative to DMSO", "setting": "[2]; 1 uM", "value": 0.9698},
      {"measurement": "Burkin Assay in Myoblasts, value relative to DMSO", "setting": "[2]; 5 uM", "value": 0.8762},
      {"measurement": "Burkin Assay in Myoblasts, value relative to DMSO", "setting": "[2]; 10 uM", "value": 0.7458},
      {"measurement": "Burkin Assay in Myoblasts, value relative to DMSO", "setting": "[2]; 20 uM", "value": 0.4873},
      {"measurement": "Burkin Assay in Myoblasts, value relative to DMSO", "setting": "[2]; 40 uM", "value": 0.2456},
      {"measurement": "Burkin Assay in Myotubes, value relative to DMSO", "setting": "[3]; 0.5 uM", "value": 1.114},
      {"measurement": "Burkin Assay in Myotubes, value relative to DMSO", "setting": "[3]; 1 uM", "value": 1.099},
      {"measurement": "Burkin Assay in Myotubes, value relative to DMSO", "setting": "[3]; 5 uM", "value": 1.089},
      {"measurement": "Burkin Assay in Myotubes, value relative to DMSO", "setting": "[3]; 10 uM", "value": 0.9194},
      {"measurement": "Burkin Assay in Myotubes, value relative to DMSO", "setting": "[3]; 20 uM", "value": 0.5272},
      {"measurement": "Burkin Assay in Myotubes, value relative to DMSO", "setting": "[3]; 40 uM", "value": 0.5105},
      {"measurement": "CMV-LACZ in Myotubes, value relative to DMSO", "setting": "[4]; 0.5 uM", "value": 0.9844},
      {"measurement": "CMV-LACZ in Myotubes, value relative to DMSO", "setting": "[4]; 1 uM", "value": 1.0570},
      {"measurement": "CMV-LACZ in Myotubes, value relative to DMSO", "setting": "[4]; 5 uM", "value": 0.8072},
      {"measurement": "CMV-LACZ in Myotubes, value relative to DMSO", "setting": "[4]; 10 uM", "value": 0.9927},
      {"measurement": "CMV-LACZ in Myotubes, value relative to DMSO", "setting": "[4]; 20 uM", "value": 0.8329},
      {"measurement": "CMV-LACZ in Myotubes, value relative to DMSO", "setting": "[4]; 40 uM", "value": 1.0847}
    ]},
    {"smiles": "COc1ccc(Cl)cc1NC(=O)c1cc(-c2cc(C)ccc2O)n[nH]1", "note": "[MLS000779126-01]", "values": [
      {"measurement": "CMV-LACZ in Myoblasts (β-galactosidase activity relative to DMSO)", "setting": "[1]; 0.5 uM", "value": 0.9751},
      {"measurement": "CMV-LACZ in Myoblasts (β-galactosidase activity relative to DMSO)", "setting": "[1]; 1 uM", "value": 0.9994},
      {"measurement": "CMV-LACZ in Myoblasts (β-galactosidase activity relative to DMSO)", "setting": "[1]; 5 uM", "value": 0.9637},
      {"measurement": "CMV-LACZ in Myoblasts (β-galactosidase activity relative to DMSO)", "setting": "[1]; 10 uM", "value": 0.7610},
      {"measurement": "CMV-LACZ in Myoblasts (β-galactosidase activity relative to DMSO)", "setting": "[1]; 20 uM", "value": 0.9944},
      {"measurement": "CMV-LACZ in Myoblasts (β-galactosidase activity relative to DMSO)", "setting": "[1]; 40 uM", "value": 0.7441},
      {"measurement": "Burkin Assay in Myoblasts, signal relative to DMSO", "setting": "[2]; 0.5 uM", "value": 1.019},
      {"measurement": "Burkin Assay in Myoblasts, signal relative to DMSO", "setting": "[2]; 1 uM", "value": 1.115},
      {"measurement": "Burkin Assay in Myoblasts, signal relative to DMSO", "setting": "[2]; 5 uM", "value": 0.9229},
      {"measurement": "Burkin Assay in Myoblasts, signal relative to DMSO", "setting": "[2]; 10 uM", "value": 0.8196},
      {"measurement": "Burkin Assay in Myoblasts, signal relative to DMSO", "setting": "[2]; 20 uM", "value": 0.9124},
      {"measurement": "Burkin Assay in Myoblasts, signal relative to DMSO", "setting": "[2]; 40 uM", "value": 0.9389},
      {"measurement": "Burkin Assay in Myotubes, α7 integrin LacZ reporter signal relative to DMSO", "setting": "[3]; 0.5 uM", "value": 0.9836},
      {"measurement": "Burkin Assay in Myotubes, α7 integrin LacZ reporter signal relative to DMSO", "setting": "[3]; 1 uM", "value": 1.018},
      {"measurement": "Burkin Assay in Myotubes, α7 integrin LacZ reporter signal relative to DMSO", "setting": "[3]; 5 uM", "value": 0.9146},
      {"measurement": "Burkin Assay in Myotubes, α7 integrin LacZ reporter signal relative to DMSO", "setting": "[3]; 10 uM", "value": 0.8758},
      {"measurement": "Burkin Assay in Myotubes, α7 integrin LacZ reporter signal relative to DMSO", "setting": "[3]; 20 uM", "value": 0.8832},
      {"measurement": "Burkin Assay in Myotubes, α7 integrin LacZ reporter signal relative to DMSO", "setting": "[3]; 40 uM", "value": 0.7768},
      {"measurement": "CMV-LACZ in Myotubes, signal relative to DMSO", "setting": "[4]; 0.5 uM", "value": 0.9495},
      {"measurement": "CMV-LACZ in Myotubes, signal relative to DMSO", "setting": "[4]; 1 uM", "value": 1.2162},
      {"measurement": "CMV-LACZ in Myotubes, signal relative to DMSO", "setting": "[4]; 5 uM", "value": 1.0257},
      {"measurement": "CMV-LACZ in Myotubes, signal relative to DMSO", "setting": "[4]; 10 uM", "value": 1.0467},
      {"measurement": "CMV-LACZ in Myotubes, signal relative to DMSO", "setting": "[4]; 20 uM", "value": 0.9988},
      {"measurement": "CMV-LACZ in Myotubes, signal relative to DMSO", "setting": "[4]; 40 uM", "value": 1.1671}
    ]}
  ]
}
